This is an account of results in patent US20230278981A1, “DICHLOROPHENOL HSD17B13 INHIBITORS AND USES THEREOF” (INIPHARM, INC., priority 2020, published 2023).

The assay deals with HSD17B13 (Homo sapiens (Human), UniProt Q7Z5P4). Description: LC/MS estrone detection assay: conversion of estradiol to estrone by HSD17B13. As to conditions: 4 μM estradiol, 6 mM NAD+, 30 nM HSD17B13 enzyme (E. coli expressed His-tagged), 2 hours at 26.5° C. Format: biochemical. The procedure:
The liquid chromatography/mass spectrometry (LC/MS) estrone detection assay monitors the conversion of estradiol to estrone by HSD17B13. This assay was undertaken in a 96wp format (Eppendorf deep well Plate 96/500) in an 80 μl reaction volume containing: 4 μM of Estradiol (E2; Cayman; Ser. No. 10/006,315), 6 mM NAD+(Sigma; #N0623) and 30 nM HSD17B13 enzyme (in-house; E. coli expressed His-tagged, purified, soluble protein) in a reaction containing […] potassium phosphate buffer pH 7.4, with 0.5% vehicle (DMSO). Reactions were incubated for 2 hours at 26.5° C., and estradiol (E2) conversion to estrone (E1) was quantitated by LC-MS/MS based analyte detection for both E2 and E1 using LCMS grade reagents.
Reactions were terminated by the addition of two volumes of acetonitrile (MeCN; LCMS grade; CAS #75/05/8) containing deuterated (D4)-E1 used as internal standard (Clear Synth; #CS-T-54273; 500 ng/mL final concentration). Samples were applied to pre-prepared Bond Elut-C18 extraction cartridges (3 mL; Agilent; Ser. No. 12/102,028), washed and eluted in MeCN. Eluates were dried under nitrogen and re-suspended in 60% methanol (LCMS grade methanol; CAS #67/56/1) before submission for analysis. Aqueous linearity for E2 and E1 were included for quantification.
Analysis of samples was undertaken on a XBridge BEH C18 column (Waters; #186003033) using 0.1% Diethyl Amine in MeCN (mobile phase A; DEA CAS #109-89-7) and 0.1% Diethyl Amine in milli-Q water (mobile phase B) in a 3 min gradient allowing 25% B. Analytes were detected in negative mode using MRM analysis, with E2 having a RT of 1.85 min and E1 having a RT of 2 min. Activity of the enzyme, in the absence of NAD^+, was used to evaluate specificity of conversion. Enzyme activity in the presence of test samples was expressed as a percentage of the uninhibited enzyme activity, and plotted versus inhibitor concentration. Non-linear regression was performed using a four-parameter logistic model and GraphPad Prism software (GraphPad Software, La Jolla, Calif.). All assessments were undertaken in duplicate evaluations and pooled during extraction process and subsequently injected as duplicates for LC-MS/MS analysis.

Each structure is given as a SMILES string.

Sequence of HSD17B13 (Q7Z5P4 20-300): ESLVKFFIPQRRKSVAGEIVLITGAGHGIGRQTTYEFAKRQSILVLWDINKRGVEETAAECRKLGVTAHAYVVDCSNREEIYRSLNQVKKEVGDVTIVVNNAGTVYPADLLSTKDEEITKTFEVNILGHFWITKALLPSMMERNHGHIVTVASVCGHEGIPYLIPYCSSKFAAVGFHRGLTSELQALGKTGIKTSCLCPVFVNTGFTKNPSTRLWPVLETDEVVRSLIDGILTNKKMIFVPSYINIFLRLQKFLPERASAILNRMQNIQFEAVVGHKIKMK

One may read the IC50 as the concentration that gives 50% inhibition. A high value points to a need for much substance. In turn, `Cc1nc2c(F)ccc(NC(=O)c3cc(Cl)c(O)c(Cl)n3)c2c(=O)n1Cc1nn(C)c2ccccc12` [Example 194, 4,6-dichloro-N-(8-fluoro-2-methyl-3-((1-methyl-1H-indazol-3-yl)methyl)-4-oxo-3,4-dihydroquinazolin-5-yl)-5-hydroxypicolinamide] showed an IC50 of 100 to 500 nM.

Compound `N#Cc1cc(C(=O)Nc2cccc3ncn(Cc4cccc(C(F)(F)F)c4)c(=O)c23)cc(Cl)c1O` [Example 68, 3-chloro-5-cyano-4-hydroxy-N-(4-oxo-3-(3-(trifluoromethyl)benzyl)-3,4-dihydroquinazolin-5-yl)benzamide] showed an IC50 of 100 to 500 nM.

In the case of `O=C(Nc1ccc(F)c2ncn(Cc3ccccc3C(F)(F)F)c(=O)c12)c1cc(Cl)c(O)c(Cl)n1` [Example 206, 4,6-dichloro-N-(8-fluoro-4-oxo-3-(2-(trifluoromethyl)benzyl)-3,4-dihydroquinazolin-5-yl)-5-hydroxypicolinamide], the IC50 was no more than 100 nM.

`O=C(Nc1scnc1C(=O)NCc1cccc(C(F)(F)F)n1)c1cc(Cl)c(O)c(Cl)n1` [Example 193, 5-(4,6-dichloro-5-hydroxypicolinamido)-N-((6-(trifluoromethyl)pyridin-2-yl)methyl)thiazole-4-carboxamide] registered an IC50 of 500 to 1000 nM.

`Cc1nc2c(F)ccc(NC(=O)c3cc(Cl)c(O)c(Cl)n3)c2c(=O)n1Cc1ccccc1C(F)(F)F` [Example 159, 4,6-dichloro-N-(8-fluoro-2-methyl-4-oxo-3-(2-(trifluoromethyl)benzyl)-3,4-dihydroquinazolin-5-yl)-5-hydroxypicolinamide] displayed an IC50 of 100 to 500 nM.

Turning to `Cc1ccc(NC(=O)c2cc(Cl)c(O)c(Cl)c2)c2c(=O)n(Cc3ccccc3C(F)(F)F)c(C)nc12` [Example 151, 3,5-dichloro-N-(2,8-dimethyl-4-oxo-3-(2-(trifluoromethyl)benzyl)-3,4-dihydroquinazolin-5-yl)-4-hydroxybenzamide], the IC50 was no more than 100 nM.

For the compound `Cc1ccc(NC(=O)c2cc(Cl)c(O)c(Cl)n2)c2c(=O)n(Cc3ccccc3OC(F)(F)F)c(C(F)F)nc12` [Example 160, 4,6-dichloro-N-(2-(difluoromethyl)-8-methyl-4-oxo-3-(2-(trifluoromethoxy)benzyl)-3,4-dihydroquinazolin-5-yl)-5-hydroxypicolinamide], the IC50 is no more than 100 nM.

`[2H]C([2H])([2H])c1nc2c(F)ccc(NC(=O)c3cc(Cl)c(O)c(Cl)n3)c2c(=O)n1Cc1ccccc1C(F)(F)F` [Example 184, 4,6-dichloro-N-(8-fluoro-2-(methyl-d3)-4-oxo-3-(2-(trifluoromethyl)benzyl)-3,4-dihydroquinazolin-5-yl)-5-hydroxypicolinamide] had an IC50 of 100 to 500 nM.

Turning to `O=C(Nc1cccc2ncn(Cc3ccn(-c4ccccc4)n3)c(=O)c12)c1cc(Cl)c(O)c(Cl)c1` [Example 77, 3,5-dichloro-4-hydroxy-N-(4-oxo-3-((1-phenyl-1H-pyrazol-3-yl)methyl)-3,4-dihydroquinazolin-5-yl)benzamide], the concentration for half-maximal inhibition (IC50) fell in the range of 100 to 500 nM.

In turn, `CC(C)(C)CCn1cnc2cccc(NC(=O)c3cc(Cl)c(O)c(Cl)c3)c2c1=O` [Example 57, 3,5-dichloro-N-(3-(3,3-dimethylbutyl)-4-oxo-3,4-dihydroquinazolin-5-yl)-4-hydroxybenzamide] came in with a 50% inhibitory concentration (IC50) of 100 to 500 nM.

For `O=C(Nc1cccc2ncn(Cc3cccnc3F)c(=O)c12)c1cc(Cl)c(O)c(Cl)n1` [Example 138, 4,6-dichloro-N-{3-[(2-fluoropyridin-3-yl)methyl]-4-oxo-3,4-dihydroquinazolin-5-yl}-5-hydroxypyridine-2-carboxamide], the IC50 is 100 to 500 nM.

`O=C(Nc1cccc2ncn(Cc3ccn(-c4ccccc4F)n3)c(=O)c12)c1cc(Cl)c(O)c(Cl)c1` [Example 76, 3,5-dichloro-N-(3-((1-(2-fluorophenyl)-1H-pyrazol-3-yl)methyl)-4-oxo-3,4-dihydroquinazolin-5-yl)-4-hydroxybenzamide] came in with an IC50 of no more than 100 nM.

Take `CC(C)(C)CCn1cnc2cccc(NC(=O)c3cc(Cl)c(O)c(Cl)n3)c2c1=O` [Example 61, 4,6-dichloro-N-(3-(3,3-dimethylbutyl)-4-oxo-3,4-dihydroquinazolin-5-yl)-5-hydroxypicolinamide]: the IC50 fell in the range of 100 to 500 nM.

Compound `O=C(Nc1cccc2ncn(Cc3ccccc3OC(F)(F)F)c(=O)c12)c1cc(Cl)c(O)c(Cl)n1` [Example 23, 4,6-dichloro-5-hydroxy-N-(4-oxo-3-{[2-(trifluoromethoxy)phenyl]methyl}-3,4-dihydroquinazolin-5-yl)pyridine-2-carboxamide] registered an IC50 of 100 to 500 nM.

`O=C(Nc1cccc2ncn(Cc3cccnc3)c(=O)c12)c1cc(Cl)c(O)c(Cl)c1` [Example 80, 3,5-dichloro-4-hydroxy-N-(4-oxo-3-(pyridin-3-ylmethyl)-3,4-dihydroquinazolin-5-yl)benzamide] gave an IC50 of 500 to 1000 nM.

`Cc1ccc(NC(=O)c2cc(Cl)c(O)c(Cl)n2)c2c(=O)n(Cc3cccc(C(F)(F)F)n3)c(C)nc12` [Example 205, 4,6-dichloro-N-(2,8-dimethyl-4-oxo-3-((6-(trifluoromethyl)pyridin-2-yl)methyl)-3,4-dihydroquinazolin-5-yl)-5-hydroxypicolinamide] had an IC50 of 500 to 1000 nM.

As to `O=C(Nc1cccc2ncn([C@H]3CC[C@@H]3c3ccccc3)c(=O)c12)c1cc(Cl)c(O)c(Cl)c1` [Example 121, 3,5-dichloro-4-hydroxy-N-(4-oxo-3-((1S,2R)-2-phenylcyclobutyl)-3,4-dihydroquinazolin-5-yl)benzamide], the IC50 lay within 100 to 500 nM.

With `O=C(Nc1cccc2ncn(Cc3cccc(C(F)(F)F)c3)c(=O)c12)c1cc(Cl)c(O)c(Cl)c1` [Example 11, 3,5-dichloro-4-hydroxy-N-(4-oxo-3-(3-(trifluoromethyl)benzyl)-3,4-dihydroquinazolin-5-yl)benzamide], the IC50 is no more than 100 nM.

`O=C(Nc1csc2ncn(Cc3ccccc3OC(F)(F)F)c(=O)c12)c1cc(Cl)c(O)c(Cl)n1` [Example 104, 4,6-dichloro-5-hydroxy-N-(4-oxo-3-(2-(trifluoromethoxy)benzyl)-3,4-dihydrothieno[2,3-d]pyrimidin-5-yl)picolinamide] yielded a half-maximal inhibitory concentration (IC50) of 100 to 500 nM.

Regarding `C[C@H](c1cccc(F)c1)n1cnc2cccc(NC(=O)c3cc(Cl)c(O)c(Cl)c3)c2c1=O` [Example 47, (R)-3,5-dichloro-N-(3-(1-(3-fluorophenyl)ethyl)-4-oxo-3,4-dihydroquinazolin-5-yl)-4-hydroxybenzamide], the half-maximal inhibitory concentration (IC50) was no more than 100 nM.

For `Cc1nc2c(F)ccc(NC(=O)c3cc(Cl)c(O)c(Cl)c3)c2c(=O)n1[C@H](C)c1ccccc1OC(F)(F)F` [Example 174, (R)-3,5-dichloro-N-(8-fluoro-2-methyl-4-oxo-3-(1-(2-(trifluoromethoxy)phenyl)ethyl)-3,4-dihydroquinazolin-5-yl)-4-hydroxybenzamide], the IC50 is 100 to 500 nM.

`O=C(Nc1cccc2ncn(Cc3ccc(OC(F)(F)F)cc3)c(=O)c12)c1cc(Cl)c(O)c(Cl)n1` [Example 50, 4,6-dichloro-5-hydroxy-N-(4-oxo-3-(4-(trifluoromethoxy)benzyl)-3,4-dihydroquinazolin-5-yl)picolinamide] came in with an IC50 of 100 to 500 nM.

For `O=C(Nc1ncsc1C(=O)NCc1ccccc1F)c1cc(Cl)c(O)c(Cl)c1` [Example 24, 4-(3,5-dichloro-4-hydroxybenzamido)-N-(2-fluorobenzyl)thiazole-5-carboxamide], the 50% inhibitory concentration (IC50) is 1000 to 10000 nM.

`O=C(N[C@@H]1CCCC[C@H]1C(=O)NCc1ccccc1OC(F)(F)F)c1cc(Cl)c(O)c(Cl)n1` [Example 145, 4,6-dichloro-5-hydroxy-N-((1R, 2R)-2-((2-(trifluoromethoxy)benzyl)carbamoyl)cyclohexyl)picolinamide] came in with an IC50 of 1000 to 10000 nM.

In turn, `O=C(Nc1cccc2ncn(Cc3ccccc3)c(=O)c12)c1cc(Cl)c(O)c(Cl)c1` [Example 1, N-(3-benzyl-4-oxo-3,4-dihydroquinazolin-5-yl)-3,5-dichloro-4-hydroxybenzamide] returned an IC50 of 100 to 500 nM.

Compound `Cn1nc(NC(=O)c2cc(Cl)c(O)c(Cl)n2)c2c(=O)n(Cc3ccccc3OC(F)(F)F)cnc21` [Example 119, 4,6-dichloro-5-hydroxy-N-(1-methyl-4-oxo-5-(2-(trifluoromethoxy)benzyl)-4,5-dihydro-1H-pyrazolo[3,4-d]pyrimidin-3-yl)picolinamide] gave an IC50 of 100 to 500 nM.

`O=C(Nc1scnc1C(=O)NCc1cccc(F)c1)c1cc(Cl)c(O)c(Cl)n1` [Example 189, 5-(4,6-dichloro-5-hydroxypicolinamido)-N-(3-fluorobenzyl)thiazole-4-carboxamide] came in with an IC50 of 100 to 500 nM.
